Assay results taken from article PMC12480552 (Scientific Reports, 2025).
“And” between values parts separate entries of the source, which are not always exact repeats. Identical values can stand only once. Like-named read-outs stand apart in the source and are kept apart here.

Columns and labels:
[1] = cited from earlier work
[2] = 43 patients, phase 0 cohort, 200 or 300 mg once daily 4 days, cited from earlier work
[3] = cited from earlier work; remark: listed apart in the source
[4] = oral dosing in NHPs; ref data not reported; cited from earlier work
[5] = MALDI MSI of brain sections, biodistribution in healthy nonhuman primates; settings: for concentration at 4 h: male, rhesus monkey, oral, 6 mg/kg
Method: Animals were randomized using the GSK Randomization App 2.0, which is an internal software tool that uses the ‘sample’ function in R to randomly shuffle animal IDs, then assigns them to treatment groups to ensure unbiased allocation.
Before each dose, animals were lightly sedated with an intramuscular injection of ketamine (5–10 mg/kg), and a blood sample was drawn. […] NHPs were euthanized by administering an overdose of injected sodium pentobarbital IV (150–200 mg/kg) and confirmed by thoracotomy and exsanguination. Terminal plasma, cerebrospinal fluid, and brain tissue were collected at necropsy. […] The brain was cut into six roughly 1-cm thick coronal segments before snap-freezing by floating on liquid nitrogen. The right hemispheres of the four interior coronal brain segments were cryosectioned and analyzed by matrix-assisted laser desorption/ionization mass spectrometry imaging (MALDI MSI) to quantitatively assess the tissue distribution of the dosed compounds[40]–[43]. After MALDI MSI analysis, tissue sections were stained with hematoxylin and eosin (H&E) for correlation of ion images with underlying tissue histology.
For both the nonhuman primate (NHP) and mouse metastases model studies, brain tissue sections of 6-µm thickness were prepared on a Leica CM1950 cryostat (Leica Biosystems, Danvers, MA). For the NHP study, tissue sections were collected from four of the coronal brain segments from each animal. From each coronal segment, three tissue sections were collected for MALDI MSI, one section for hematoxylin and eosin (H&E) staining, and roughly 30 sections were collected into a pre-weighed vial for homogenization and liquid chromatography–tandem mass spectrometry (LC-MS/MS) bioanalysis. The three sections for MALDI MSI were thaw-mounted onto double-width indium tin oxide–coated slides (BigSlides; Bruker Daltonics, Billerica, MA) that had been pretreated with a poly-L-lysine solution to improve tissue adherence. The section for H&E staining was thaw-mounted onto a standard double-width glass microscope slide.
A gelatin cast of the mimetic model was prepared by pipetting a warmed (50 °C) 15% gelatin solution into a tissue microarray mold (Arraymold kit C, 4 mm, 15 cores; Arraymold, Ogden, UT). The gelatin cast was then frozen overnight at (− 20 °C). Bulk homogenate of control rat brain tissue was prepared using an Omni Bead Ruptor Elite bead mill homogenizer (Omni International, Kennesaw, GA). […] The gelatin cast was warmed to room temperature, and the spiked homogenates were pipetted into each of the individual wells. The cast and homogenate were then frozen by floating on liquid nitrogen and stored at − 80 °C. Cryosections (6-µm thickness) of the mimetic tissue model were then collected on the same slide as the sample tissue to be quantified.
Slides were coated with a TM Sprayer (HTX Technologies, Chapel Hill, NC) using the following parameters: 0.1-mL/min flowrate, 70 °C, 3-mm track spacing with CC pattern, and 8 passes.
MALDI MSI was performed on either a Bruker ScimaX (7T) or a Bruker SolariX (7T) FT-ICR mass spectrometer. […] Both narrowband and CASI windows were centered between parent and internal standard m/z. The small laser focus was used with 200 laser shots per position, and the laser power was adjusted in accordance with a quality control sample acquired just before initiating the imaging sequence.
After MALDI MSI acquisition, slides were immersed in 100% ethanol for 5 min to remove the MALDI matrix. Slides were then stained with H&E and digitally scanned. Ion images were loaded into flexImaging (Bruker Daltonics), the post–MALDI H&E image was coregistered, and key regions of interest (ROIs) for the tissue and mimetic model were drawn. […] This stipulation was implemented to avoid internal standard normalization of noise, which can introduce artifactual distributions.

MALDI MSI Brain sections, mean (SD) ([5]; healthy rhesus macaques, individual animals, oral once daily 5 days, niraparib 6 mg/kg (4 h after last dose), olaparib 10 mg/kg (2–2.5 h), total concentration, LOD 20 ng/g niraparib, 70 ng/g olaparib): 283 (69) ng/g and 684 (189) ng/g | concentration at 4 h ([5]; brain (coronal Region 1 sections), MALDI MSI Mean Conc. by brain region, NHP-1, Region 1, 3 sections, Fig. 1B): 268 ng/g | concentration at 4 h ([5]; brain (coronal Region 1 sections), MALDI MSI Mean Conc. by brain region, NHP-2, Region 1, 3 sections, Fig. 1B): 524 ng/g | concentration at 4 h ([5]; brain (coronal Region 2 sections), MALDI MSI Mean Conc. by brain region, NHP-1, Region 2, 3 sections, Fig. 1B): 287 ng/g | concentration at 4 h ([5]; brain (coronal Region 2 sections), MALDI MSI Mean Conc. by brain region, NHP-2, Region 2, 3 sections, Fig. 1B): 610 ng/g | concentration at 4 h ([5]; brain (coronal Region 3 sections), MALDI MSI Mean Conc. by brain region, NHP-1, Region 3, 3 sections, Fig. 1B): 217 ng/g | concentration at 4 h ([5]; brain (coronal Region 3 sections), MALDI MSI Mean Conc. by brain region, NHP-2, Region 3, 3 sections, Fig. 1B): 822 ng/g | concentration at 4 h ([5]; brain (coronal Region 4 sections), MALDI MSI Mean Conc. by brain region, NHP-1, Region 4, 3 sections, Fig. 1B): 362 ng/g | concentration at 4 h ([5]; brain (coronal Region 4 sections), MALDI MSI Mean Conc. by brain region, NHP-2, Region 4, 3 sections, Fig. 1B): 781 ng/g | concentration at 4 h ([5]; brain blood vessel, Niraparib Mean Conc. in histological ROI, NHP-1, Blood Vessel, Fig. 1D): 779 ng/g | concentration at 4 h ([5]; brain blood vessel, Niraparib Mean Conc. in histological ROI, NHP-2, Blood Vessel, Fig. 1D): 1210 ng/g | concentration at 4 h ([5]; brain gray matter, Niraparib Mean Conc. in histological ROI, NHP-1, Gray Matter, Fig. 1D): 292 ng/g | concentration at 4 h ([5]; brain gray matter, Niraparib Mean Conc. in histological ROI, NHP-2, Gray Matter, Fig. 1D): 743 ng/g | concentration at 4 h ([5]; brain parenchyma, mean unbound niraparib concentration in the brain parenchyma, healthy rhesus macaques, estimated from MALDI MSI): ~15 ng/g | concentration at 4 h ([5]; brain ventricle, Niraparib Mean Conc. in histological ROI, NHP-1, Ventricle, Fig. 1D): 3360 ng/g | concentration at 4 h ([5]; brain ventricle, Niraparib Mean Conc. in histological ROI, NHP-2, Ventricle, Fig. 1D): 4830 ng/g | concentration at 4 h ([5]; brain white matter, Niraparib Mean Conc. in histological ROI, NHP-1, White Matter, Fig. 1D): 177 ng/g | concentration at 4 h ([5]; brain white matter, Niraparib Mean Conc. in histological ROI, NHP-2, White Matter, Fig. 1D): 350 ng/g
Compound: NC(=O)c1cccc2cn(-c3ccc([C@@H]4CCCNC4)cc3)nc12 [Niraparib]
Kp, brain ([1]; P-gp knockout mice): 1.20 | Kp, brain ([1]; P-gp/BCRP knockout mice): 1.46 | Kp, brain ([1]; wild-type mice): 0.20 | Kp, tumor ([2]; gadolinium-enhanced tissue): 7.5 | Kp, tumor ([2]; nonenhanced tissue): 4.2 | cell membrane permeability [3]: high | plasma time to peak drug concentration (Tmax) [4]: ≈ 4 h
